In patent publication US10028990B2, “Functional foods and beverages with synergistic properties to promote homeostasis” (JUSTBIO INC., priority 2011, dated 2018):
Residues, ends and D or L forms follow the SMILES beside them.

Assays:
[1] = ORAC (Oxygen Radical Absorbance Capacity) test; details: FIG. 46; combined with maple syrup
Description: The antioxidant capacity of formulations and beverages was determined with the ORAC (Oxygen Radical Absorbance Capacity) test. ORAC assays were performed as previously described (Prior et al, 2005). […] These free radicals are generated by the exposition of flurorescein to AAPH. […] The oxidation process is a kinetic reaction that is measured fluorescence levels (excitation: 485 nm, emission: 528 nm) over time using a Synergy HT (Biotek) microplate reader. Area under the curves (AUC) from each compound tested are calculated and compared to the blank and the control of reference the vitamin E analog 6-Hydroxy-2,5,7,8 Teramethylchromane-2-carboxylic acid (Trolox). ORAC values are expressed as μmol of Trolox equivalent per ml (μmol TE/ml) of compound tested.

SH-SY5Y neurons = test: ROS production by dopaminergic SH-SY5Y neurons exposed to supernatant of Cal27 cells; assay type: cell-based, Human
Description: (§1) Cellular ROS levels were obtained by measuring the oxidation of CM-H2DCFDA (5-(and 6)-chlromethyl-20,70-dichlorodihydrofluresceindiacetate; Invitrogen) a cell-permeant indicator. Cal27, HEK 293 and SH-SY5Y were plated in 96 well plates at a cell density of 25000 cells per well. Cells were treated for 1 hour with 5 μM CM-H2DCFDA. After removing the CDFDA solution, cells were treated with various adaptogenic formulations prepared with ROS buffer (HBSS containing 2% FBS). After 30 min of exposure with samples, a first reading was taken using the synergy HT (Biotek) plate reader. Various concentrations of AAPH (100 mM, 40 mM, 16 mM, 6.4 mM and 2.5 mM) were then added, and readings (excitation: 485 nm, emission: 530 nm) were taken every 30 minutes for 2 hours. The fluorescence intensity is an indicator of H2O2 intracellular level so values are expressed in Relative Fluorescence Unit (RFU).
This assay mimics the impact of mucosal cells on subepithelial neuronal cells.

TLR2 = target: T1, TLR2 (Homo sapiens, UniProt O60603+Q15399); test: TLR2 activation with Pam3Cys in Cal27 cells under low or high oxidative stress; assay type: cell-based; details: FIG. 34, Pam3Cys 500 ng/ml
T1 construct: TLR2-dependent ROS production in Cal27 exposed for 30 minutes to various concentrations of AAPH; host or cells: CAL27
Description: Cell lines (CAL27, SH-SY5Y) used for this assay were plated in plaque assays at a density of 50,000-100,000 cells per well. Colorimetric MTT (3-(4,5-dimethylthiazol-2-yl)-2,5-diphenyl tetrazolium bromide) was dissolved in HBSS buffer to obtain a final concentration of 0.5 mg/ml per well. Cell plates were incubated for 2 hours at 37° C. Conditioned medium was then removed, and acid-isopropanol (0.04N HCl in isopropanol) was added to all wells. HCL was used as positive control to induce cell death. Plates were read at 530 nm/630 nm in a Synergy Biotek machine. […] This method is an adaptation of a previously described assay (Mossman, 1983).
All cell lines were obtained from the American Type Culture Collection (ATCC, Manassas, US). In some experiments, cells were transferred to a 96 wells plate and treated with different concentration of TLR2 agonist synthetic triacylated lipoprotein PAM3CSK4 (InvivoGen) starting by 500 ng/ml final concentration to activate TLR2.
as §1
ATP intracellular levels were measured from whole cell lysates obtained through a freeze-thaw cycle, whereas ATP secreted from cells were measured from conditioned cell culture supernatants. Both intracellular and secreted ATP using measured using an ATP determination kit purchased from Invitrogen (Molecular Probes). ATP levels were detected at luminescence 560 nm. ATP levels were normalized to untreated control and were expressed as % ATP levels.

T1 sequence (O60603 21-784): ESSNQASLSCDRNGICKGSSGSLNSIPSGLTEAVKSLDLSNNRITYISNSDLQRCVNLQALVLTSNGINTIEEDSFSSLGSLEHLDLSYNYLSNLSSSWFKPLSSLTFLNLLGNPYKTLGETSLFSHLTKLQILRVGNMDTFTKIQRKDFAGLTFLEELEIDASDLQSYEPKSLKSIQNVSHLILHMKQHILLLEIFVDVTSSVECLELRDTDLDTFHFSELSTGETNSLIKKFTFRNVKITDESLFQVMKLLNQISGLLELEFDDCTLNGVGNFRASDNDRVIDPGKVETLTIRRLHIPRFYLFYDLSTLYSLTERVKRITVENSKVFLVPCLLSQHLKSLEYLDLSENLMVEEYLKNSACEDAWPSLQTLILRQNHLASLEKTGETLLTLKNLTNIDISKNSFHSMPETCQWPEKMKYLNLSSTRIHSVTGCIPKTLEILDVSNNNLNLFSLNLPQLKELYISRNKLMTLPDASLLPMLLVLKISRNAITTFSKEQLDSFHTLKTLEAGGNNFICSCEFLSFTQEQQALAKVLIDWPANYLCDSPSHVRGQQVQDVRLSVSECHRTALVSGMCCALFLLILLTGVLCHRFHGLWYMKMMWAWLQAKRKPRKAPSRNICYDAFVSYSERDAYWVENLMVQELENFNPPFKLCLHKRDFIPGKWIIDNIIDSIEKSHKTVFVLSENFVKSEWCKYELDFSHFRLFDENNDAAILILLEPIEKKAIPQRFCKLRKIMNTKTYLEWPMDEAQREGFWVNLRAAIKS
T1 sequence (Q15399 25-786): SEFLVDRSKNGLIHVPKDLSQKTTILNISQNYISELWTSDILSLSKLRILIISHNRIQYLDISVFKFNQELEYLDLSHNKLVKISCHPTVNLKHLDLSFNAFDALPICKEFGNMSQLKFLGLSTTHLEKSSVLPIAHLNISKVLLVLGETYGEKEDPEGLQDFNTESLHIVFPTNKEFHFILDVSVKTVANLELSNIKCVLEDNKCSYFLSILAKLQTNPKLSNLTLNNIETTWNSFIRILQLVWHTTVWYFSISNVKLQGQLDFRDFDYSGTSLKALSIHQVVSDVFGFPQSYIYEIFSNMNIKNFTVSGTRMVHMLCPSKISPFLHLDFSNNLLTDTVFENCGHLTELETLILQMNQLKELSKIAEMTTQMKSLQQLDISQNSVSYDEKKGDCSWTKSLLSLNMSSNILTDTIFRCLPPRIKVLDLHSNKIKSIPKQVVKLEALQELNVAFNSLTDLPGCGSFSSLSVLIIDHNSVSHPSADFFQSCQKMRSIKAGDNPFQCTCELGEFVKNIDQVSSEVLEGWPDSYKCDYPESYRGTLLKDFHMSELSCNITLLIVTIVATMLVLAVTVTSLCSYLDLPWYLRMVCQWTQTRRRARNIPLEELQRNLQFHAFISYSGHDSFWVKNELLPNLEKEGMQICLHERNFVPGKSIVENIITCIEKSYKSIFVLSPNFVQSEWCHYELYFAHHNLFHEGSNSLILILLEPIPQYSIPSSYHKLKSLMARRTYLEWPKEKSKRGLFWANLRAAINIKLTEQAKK

In the case of `C=C1C[C@@]23CC[C@H]4[C@@](C)(CCC[C@@]4(C)C(=O)O[C@@H]4O[C@H](CO)[C@@H](O)[C@H](O)[C@H]4O)[C@@H]2CC[C@]1(O[C@@H]1O[C@H](CO)[C@@H](O)[C@H](O[C@@H]2O[C@H](CO)[C@@H](O)[C@H](O)[C@H]2O)[C@H]1O[C@@H]1O[C@H](CO)[C@@H](O)[C@H](O)[C@H]1O)C3` [Rebaudiside A, Rebaudioside A], the “synergy in combination with maple syrup (ORAC versus sum of SE+ingredient)” value (from here on “synergy … (ORAC versus sum of SE+ingredient)”) [1] is reported as “act in synergy”.
With `COC(=O)[C@H](Cc1ccccc1)NC(=O)[C@@H](N)CC(=O)O` [aspartame] (H-Asp-Phe-OMe) the “synergy … (ORAC versus sum of SE+ingredient)” value [1] was “does not create this synergy”.
In the case of `C=C1C[C@@]23CC[C@H]4[C@@](C)(CCC[C@@]4(C)C(=O)O[C@@H]4O[C@H](CO)[C@@H](O)[C@H](O)[C@H]4O)[C@@H]2CC[C@]1(O[C@@H]1O[C@H](CO)[C@@H](O)[C@H](O)[C@H]1O[C@@H]1O[C@H](CO)[C@@H](O)[C@H](O)[C@H]1O)C3` [stevioside], the “synergy … (ORAC versus sum of SE+ingredient)” value [1] is reported as “act in synergy”.
With `OC[C@H]1O[C@H](O[C@]2(CCl)O[C@H](CCl)[C@@H](O)[C@@H]2O)[C@H](O)[C@@H](O)[C@H]1Cl` [sucralose] the “synergy … (ORAC versus sum of SE+ingredient)” value [1] was “does not create this synergy”.
In the case of Pam3Cys, the “ROS production by dopaminergic neurons upon TLR2 activation of Cal27 cells” value (SH-SY5Y neurons; FIG. 37, 50 ng/ml of Pam3Cys) is reported as “reduce ROS production”, the “neuroprotective role upon TLR2 activation of Cal27 cells” value (SH-SY5Y neurons; higher dose of Pam3Cys (250 or 500 ng/ml)) is reported as “did not have this neuroprotective role” and the “impact on ROS production” value (TLR2; 6.4 mM and 16 mM AAPH) is reported as “no significant impact”. For the same compound, the “impact on mitochondrial activity” value (TLR2; 6.4 mM and 16 mM AAPH) was “no significant impact”, the ATP secretion (TLR2; cells without AAPH) was “slightly increased ATP secretion” and the ATP production (TLR2; high oxidative stress (16 mM AAPH)) was “increases ATP production”.
